Test results reported in patent publication US20080200501A1, “NOVEL CANNABINOID RECEPTOR LIGANDS, PHARMACEUTICAL COMPOSITIONS CONTAINING THEM, AND PROCESSES FOR THEIR PREPARATION” (Glenmark Pharmaceuticals S.A., priority 2006, published 2008).

What was measured:
[1] = Pharmacokinetic study, single oral dose in rats; format: in vivo; conditions: Sprague-Dawley, rat; mean; male Sprague-Dawly rats, single oral dose 10 mg/kg in 0.5% methylcellulose suspension, overnight fasted; plasma, HPLC-UV
Procedure: Male Sprague-Dawly rats were administered by oral gavage a single oral dose of 10 mg/kg b.wt. test compound in 0.5% methylcellulose suspension in overnight fasted (12 hrs before dose) condition. Fasting was continued till 4 hr post dose. Blood samples were collected predose and at 15 and 30 minutes and 1, 2, 3, 4, 6, 8, 12 and 24 hrs post-dose and were kept on an ice bath till further processing. These samples were separated for plasma by centrifuging at 4° C. for 10 minutes at 1000×g and then stored at −70° C. till further analysis. These samples were analyzed for the levels of the test compound by HPLC-UV and the pharmacokinetic parameters were calculated using these concentrations by using WinNonlin software (Pharsight Inc., USA, Version 5.1).

SMILES | melting point [°C] | AUC(0-inf) [1] [ng·h/mL] | AUC(0-t) [1] [ng·h/mL] | Cmax [1] [ng/mL] | Tmax [1] [h] | half-life [1] [h]
CCCCCC(C)(C)NC(=O)c1nn(-c2ccc(F)cc2F)c2c1C1CCC2C1 (stereo not drawn) | 76 to 78 |  |  |  |  | 
CC(C)(CO)NC(=O)c1nn(-c2ccc(Cl)cc2)c2c1[C@@H]1CC[C@H]2C1 (single isomer, unassigned) [Compound 98, (1S,7R)- or (1R,7S)-N5-(2-Hydroxy-1,1-dimethylethyl)-3-(4-chlorophenyl)-3,4-diazatricyclo[5.2.1.0^2,6]deca-2(6),4-diene-5-carboxamide] |  | 12000 | 11700 | 1950 | 0.5 | 4.77
